Experimental data: patent US20130072495A1, “FUSED BICYCLIC KINASE INHIBITORS” (OSI Pharmaceuticals, LLC, priority 2010, published 2013)

Experiments:
Type in all cases: cell-based
MET = biological target: T1, MET (Homo sapiens, UniProt P08581); assay: MET cell mechanistic assay (MKN45), phosphorylated MET levels; conditions: MKN45 cell line, four hours incubation, at least duplicate experiments, read-out: MET mech IC50
T1 construct: endogenous in cells; host or cells: MKN45
Method: The cellular activity of the compounds of the present invention against MET may be determined by the following procedure. MKN45 cells were plated in Falcon 3072 96-well plates in growth media (RPMI, 10% FBS, 1% L-glutamine) at a density of 5000 cells/well and incubated at 37° C., 5% CO2 overnight. The following day, one-tenth volume of a 10× concentration of compounds was added to the wells in a 6-point dilution series. The dilutions series was composed of an initial […] in DMSO, followed by a […] in growth media, for a final DMSO concentration on cells of 0.5%. Control wells were treated with 0.5% DMSO. The typical range of dilution was 10 μM to 3 nM. Once compound was added to the cells, plates were incubated for four hours at 37° C., 5% CO2. Plates were then washed in PBS, and lysed in triton-based lysis buffer. Lysates were transferred to a precoated capture plate made by Biosource (Cat # KHO0281). The phosphorylated MET levels were measured by incubating with a rabbit polyclonal antibody against phosphorylated MET ([pYpYpY1230/1234/1235]) followed by an anti-rabbit antibody conjugated to HRP. Signal was measured on a Wallac Victor plate reader at 450 nm. The DMSO signal of the control wells was defined as 100% and the percent of inhibition of phosphorylated MET was expressed as percent of control. IC50 values were determined from the percent of control data using a standard four-parameter model.
(§1) The IC50 values of exemplary compounds of the present invention determined in a MET cell mechanistic assay using the MKN45 cell line according to the procedures described herein in at least duplicate experiments are abbreviated as follows and are shown in Table 2: A, IC50≦0.1 μM; B, 0.1 μM<IC50≦0.5 μM; C, 0.5 μM<IC50≦2 μM; D, IC50>2 μM; ND, not determined. The Example # of Table 2 corresponds to the compound example number as illustrated in the Experimental section above.

MKN45 cells = assay: MKN45 cell proliferation assay (CellTiter-Glo); conditions: Homo sapiens, MKN-45, 72 h; MKN45 cell line, 3 days incubation, at least duplicate experiments; read-out: Prolif. IC50
Method: The effect of inhibitors on the proliferation of MKN45 cells was determined using the following protocol. MKN45 cells were plated in Corning 3917 96-well white tissue culture treated plates in growth medium (RPMI, 10% FCS) at a density of 5000 cells/well in a total volume of 135 μL and incubated at 37° C., 5% CO2, 95% humidity overnight. The following day, one-tenth volume of a 10× concentration of compounds was added to the wells in an 8-point dilution series. The dilution series was composed of an initial 1:5 dilution of a 10 mM stock of compound in DMSO, followed by serial 1:4 dilutions in DMSO, then a 1:20 dilution in growth medium prior to the 1:10 dilution into the cell plate. Final DMSO concentration on the cells was 0.1%, there were control wells treated with both 0.1% DMSO and no DMSO. The typical dilution range is 10 μM to 0.6 nM. Once the compound was added to the cells, plates were incubated for 3 days at 37° C., 5% CO2 at 95% humidity. On the third day, after allowing all cells and reagents to come to room temperature, 25 μL of CellTiter-Glo reagent (Promega # G7573) was added to the wells. Plates were shaken on a platform for 10 minutes prior to reading luminescence for 0.1 seconds. The signal of the control wells was taken as 100% growth and growth inhibition was expressed as percent of control. IC50 values were determined from the percent of control data using a standard four-parameter model.
as §1, with “a” for “a MET”, “cell proliferation” for “cell mechanistic”, “Table 1:” for “Table 2:”, “Table 1” for “Table 2”
Treatment of this cell line with a selective MET inhibitor led to induction of apoptosis and inhibition of proliferation, whereas non-MET-amplified cell lines were not affected. Smolen et al., Proc. Natl. Acad. Sci. USA, 103(7):2316-2321 (2006). This cell line is thus “driven” by MET, and antiproliferative effects correlate very well with the inhibition of MET phosphorylation so that the cell proliferation IC50 values can be used as surrogate for the MET cell mechanistic IC50 values. Under the assay conditions described herein, the IC50 values correlate nearly 1:1.

sfRON = biological target: T2, sfRON (Homo sapiens, UniProt Q04912); assay: sfRON cell mechanistic assay (HeLa), phosphorylated RON levels; conditions: sfRON transfected HeLa cells, four hours incubation, at least duplicate experiments, read-out: sfRON mech IC50
T2 construct: expressed in transfected cells; host or cells: HeLa (transient transfection, Lipofectamine-2000, sfRON-pcDNA plasmid)
T2 sequence (Q04912 913-1400 limits assumed): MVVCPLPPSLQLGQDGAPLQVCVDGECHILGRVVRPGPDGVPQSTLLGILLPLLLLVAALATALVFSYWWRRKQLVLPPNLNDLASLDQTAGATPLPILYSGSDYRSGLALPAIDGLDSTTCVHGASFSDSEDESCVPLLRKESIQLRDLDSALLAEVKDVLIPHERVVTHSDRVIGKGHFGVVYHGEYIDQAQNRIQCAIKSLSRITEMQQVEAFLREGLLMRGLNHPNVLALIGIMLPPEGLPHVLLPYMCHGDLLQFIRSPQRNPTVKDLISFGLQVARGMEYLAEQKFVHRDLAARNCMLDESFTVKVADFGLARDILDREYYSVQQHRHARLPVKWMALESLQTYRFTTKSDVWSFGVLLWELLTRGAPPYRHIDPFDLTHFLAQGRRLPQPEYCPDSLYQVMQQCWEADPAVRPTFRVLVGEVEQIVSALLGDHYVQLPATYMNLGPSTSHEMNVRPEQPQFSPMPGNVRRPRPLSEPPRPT
Method: The cellular activity of the compounds of the present invention against RON may be determined by the following procedure. HeLa cells were plated in Falcon 3072 96-well plates in growth media (DMEM, 10% FBS, 1% L-glutamine) at a density of 10000 cells/well and incubated at 37° C., 5% CO2 overnight. The following day, cells were transfected with 0.2 μg sfRON-pcDNA plasmid DNA with 0.5 μL Lipofectamine-2000 per well in the presence of 50 μL OPTI-MEM, incubated at 37° C., 5% CO2 overnight. Costar 3915 96-well assay plates were coated with rabbit Anti-RON antibody at 2.0 μg/mL, sealed, and incubated overnight at 4° C. On the third day, coated plates were washed with PBS and blocked with 3% BSA. For the sfRON transfected cells, one-tenth volume of a 10× concentration of compounds was added to the wells in a 6-point dilution series. The dilution series was composed of an initial 1:5 dilution of a 10 mM DMSO stock solution of compound in DMSO, followed by a 1:10 dilution in growth media, for a final DMSO concentration on cells of 0.5%. Control wells were treated with 0.5% DMSO. The typical range of dilution was 10 μM to 3 nM. Once compound was added to the cells, plates were incubated for four hours at 37° C., 5% CO2. Plates were then washed in PBS, and lysed in triton-based lysis buffer. Lysates were transferred to the blocked capture plates. The phosphorylated RON levels were measured by incubating with a Goat polyclonal antibody against phosphorylated RON ([pYpY1238/1239]) followed by an anti-Goat antibody conjugated to HRP. Signal was measured on a Wallac Victor plate reader with luminance. The DMSO signal of the control wells was defined as 100% and the percent of inhibition of phosphorylated RON was expressed as percent of control. IC50 values were determined from the percent of control data using a standard four-parameter model.
The IC50 values of exemplary compounds of the present invention determined in a sfRON cell mechanistic assay using the HeLa cell line according to the procedures described herein in at least duplicate experiments are abbreviated as follows and are shown in Table 3: A, IC50≦0.1 μM; B, 0.1 μM<IC50≦0.5 μM; C, 0.5 μM<IC50≦1 μM; D, IC50>1 μM; ND, not determined. The Example # of Table 3 corresponds to the compound example number as illustrated in the Examples section.

T1 sequence (P08581 25-1390): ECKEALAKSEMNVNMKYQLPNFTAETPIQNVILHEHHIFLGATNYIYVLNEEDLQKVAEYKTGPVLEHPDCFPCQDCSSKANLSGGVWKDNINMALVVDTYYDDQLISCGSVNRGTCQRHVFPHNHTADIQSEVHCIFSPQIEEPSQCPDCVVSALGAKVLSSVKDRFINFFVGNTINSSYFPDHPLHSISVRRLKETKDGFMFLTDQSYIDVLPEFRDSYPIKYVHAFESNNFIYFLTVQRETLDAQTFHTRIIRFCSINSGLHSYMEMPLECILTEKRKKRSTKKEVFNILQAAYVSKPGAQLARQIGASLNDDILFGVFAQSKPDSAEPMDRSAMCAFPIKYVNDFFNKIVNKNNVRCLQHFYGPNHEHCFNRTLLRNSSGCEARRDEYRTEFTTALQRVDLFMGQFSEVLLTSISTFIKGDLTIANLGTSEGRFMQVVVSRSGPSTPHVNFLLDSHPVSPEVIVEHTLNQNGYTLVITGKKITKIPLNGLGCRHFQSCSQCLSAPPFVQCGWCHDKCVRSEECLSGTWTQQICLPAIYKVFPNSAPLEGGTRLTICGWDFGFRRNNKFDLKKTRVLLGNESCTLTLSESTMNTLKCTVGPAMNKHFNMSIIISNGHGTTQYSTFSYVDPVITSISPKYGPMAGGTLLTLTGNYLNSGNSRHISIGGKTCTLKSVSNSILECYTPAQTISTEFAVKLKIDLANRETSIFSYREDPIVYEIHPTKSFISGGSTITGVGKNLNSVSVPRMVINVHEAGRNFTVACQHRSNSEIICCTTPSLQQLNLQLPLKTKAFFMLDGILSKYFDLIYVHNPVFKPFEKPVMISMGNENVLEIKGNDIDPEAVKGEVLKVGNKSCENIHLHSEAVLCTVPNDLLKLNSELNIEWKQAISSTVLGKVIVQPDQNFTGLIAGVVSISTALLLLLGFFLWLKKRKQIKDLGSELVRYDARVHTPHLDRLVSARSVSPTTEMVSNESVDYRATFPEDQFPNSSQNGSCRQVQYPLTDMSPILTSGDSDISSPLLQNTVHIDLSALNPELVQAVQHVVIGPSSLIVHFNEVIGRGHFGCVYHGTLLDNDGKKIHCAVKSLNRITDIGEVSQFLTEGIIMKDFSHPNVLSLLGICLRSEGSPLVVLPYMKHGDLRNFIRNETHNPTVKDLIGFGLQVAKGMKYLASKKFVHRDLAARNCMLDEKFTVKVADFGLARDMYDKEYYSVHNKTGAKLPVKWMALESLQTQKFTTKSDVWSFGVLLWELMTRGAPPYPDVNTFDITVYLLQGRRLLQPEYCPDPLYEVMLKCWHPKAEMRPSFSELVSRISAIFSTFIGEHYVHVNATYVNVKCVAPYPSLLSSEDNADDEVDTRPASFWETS

Molecule	IC50 (MET) [nM]	IC50 (MKN45 cells) [nM]	IC50 (sfRON) [nM]
7-[(2,6-dichloro-3-fluorophenyl)methoxymethyl]-2-(1-piperidin-4-yl-1H-pyrazol-4-yl)-5H-pyrrolo[2,3-b]pyrazine [Example 1]	100 to 500		
COc1ccc(F)c(Cl)c1C(C)c1n[nH]c2ncc(-c3cnn([C@H]4CC[C@H](O)CC4)c3)cc12 (relative stereo) [Example 9, trans-4-(4-{3-[1-(2-Chloro-3-fluoro-6-methoxyphenyl)ethyl]-1H-pyrazolo[3,4-b]pyridin-5-yl}-1H-pyrazol-1-yl)cyclohexanol]		≤ 100	
C[C@H](c1c(Cl)ccc(F)c1Cl)n1ccc2ncc(-c3cnn(C)c3)cc21 [Example 4, 1-[(1R)-1-(2,6-dichloro-3-fluorophenyl)ethyl]-6-(1-methyl-1H-pyrazol-4-yl)-1H-pyrrolo[3,2-b]pyridine]		500 to 2000	> 1000
C[C@H](c1c(Cl)ccc(F)c1Cl)n1ccc2ncc(-c3cnn(C4CCNCC4)c3)cc21 [Example 5, 1-[(1R)-1-(2,6-Dichloro-3-fluorophenyl)ethyl]-6-[1-(piperidin-4-yl)-1H-pyrazol-4-yl]-1H-pyrrolo[3,2-b]pyridine]		≤ 100	500 to 1000
C[C@H](c1c(Cl)ccc(F)c1Cl)n1ccc2ncc(-c3cnn(C4CCN(C=O)CC4)c3)cc21 [Example 6, 4-(4-{1-[(1R)-1-(2,6-Dichloro-3-fluorophenyl)ethyl]-1H-pyrrolo[3,2-b]pyridin-6-yl}-1H-pyrazol-1-yl)piperidine-1-carbaldehyde]		100 to 500	500 to 1000
C[C@H](c1c(Cl)ccc(F)c1Cl)n1ccc2ncc(-c3cnn([C@H]4CC[C@H](O)CC4)c3)cc21 [Example 7, trans-4-(4-{1-[(1R)-1-(2,6-Dichloro-3-fluorophenyl)ethyl]-1H-pyrrolo[3,2-b]pyridin-6-yl}-1H-pyrazol-1-yl)cyclohexanol]		100 to 500	100 to 500
C[C@H](c1c(Cl)ccc(F)c1Cl)n1ccc2ncc(-c3cnn(C[C@H](O)CO)c3)cc21 [Example 8, (2S)-3-(4-{1-[(1R)-1-(2,6-Dichloro-3-fluorophenyl)ethyl]-1H-pyrrolo[3,2-b]pyridin-6-yl}-1H-pyrazol-1-yl)propane-1,2-diol]		100 to 500	500 to 1000
COc1ccc(F)c(Cl)c1[C@@H](C)c1n[nH]c2ncc(-c3cnn([C@H]4CC[C@H](O)CC4)c3)cc12 [Example 10, trans-4-(4-{3-[(1R)-1-(2-Chloro-3-fluoro-6-methoxyphenyl)ethyl]-1H-pyrazolo[3,4-b]pyridin-5-yl}-1H-pyrazol-1-yl)cyclohexanol]		≤ 100	100 to 500
COc1ccc(F)c(Cl)c1[C@H](C)c1n[nH]c2ncc(-c3cnn([C@H]4CC[C@H](O)CC4)c3)cc12 [Example 11, trans-4-(4-{3-[(1S)-1-(2-Chloro-3-fluoro-6-methoxyphenyl)ethyl]-1H-pyrazolo[3,4-b]pyridin-5-yl}-1H-pyrazol-1-yl)cyclohexanol]		> 2000	
COc1ccc(F)c(Cl)c1[C@@H](C)c1n[nH]c2ncc(-c3cnn(C4CCNCC4)c3)cc12 [Example 12, 3-[(1R)-1-(2-chloro-3-fluoro-6-methoxyphenyl)ethyl]-5-[1-(piperidin-4-yl)-1H-pyrazol-4-yl]-1H-pyrazolo[3,4-b]pyridine]		≤ 100	
COc1ccc(F)c(Cl)c1[C@@H](C)c1n[nH]c2ncc(-c3cnn(C[C@H](O)CO)c3)cc12 [Example 13, (2S)-3-(4-{3-[(1R)-1-(2-chloro-3-fluoro-6-methoxyphenyl)ethyl]-1H-pyrazolo[3,4-b]pyridin-5-yl}-1H-pyrazol-1-yl)propane-1,2-diol]		100 to 500	
COc1ccc(F)c(Cl)c1[C@@H](C)c1n[nH]c2ncc(-c3cnn(C)c3)cc12 [Example 14, 3-[(1R)-1-(2-chloro-3-fluoro-6-methoxyphenyl)ethyl]-5-(1-methyl-1H-pyrazol-4-yl)-1H-pyrazolo[3,4-b]pyridine]		100 to 500	
CC(c1c(Cl)ccc(F)c1Cl)c1c[nH]c2nnc(-c3cnn(C)c3)cc12 (stereo not shown) [Example 15, 5-[1-(2,6-Dichloro-3-fluorophenyl)ethyl]-3-(1-methyl-1H-pyrazol-4-yl)-7H-pyrrolo[2,3-c]pyridazine]		> 2000	
